Tested on: human airway model tissue
Conditions: e-cigarette vapor exposure day 20 to day 34; vs untreated 'no battery' tissue
Source text: The investigation compared how human airway model tissue was affected by e-cigarette vapors generated from two different vape-liquids, propylene glycol/vegetable glycerin ‘PG:VG’, and vitamin E acetate ‘VEA’.
Referring to FIGS. 30A-30B, illustration of experimental design used in research investigation, human airway model tissues were formed from day 0 to day 20, tissues were exposed to experimental vapors from day 20 to day 34.

CC(=O)Oc1c(C)c(C)c2c(c1C)CCC(C)(CCC[C@H](C)CCC[C@H](C)CCCC(C)C)O2 (stereo partly shown) [VEA, vitamin E acetate]
tissue morphology in stained cross-sections: present typical structure and are undamaged

Source: patent publication US20240319156A1, “DEVICE FOR TESTING VAPORIZABLE FLUIDS IN A HUMAN AIRWAY MODEL” (Rowan University, priority 2022, published 2024)
